Patent US12552771B2, “Carboxylic acid containing azetidinyl compounds for the treatment of neurodegenerative diseases” (Celgene Corporation, priority 2021, dated 2026)
Where a name gives a salt, the structure may show the parent alone.

Target: T1, S1P5 receptors (Homo sapiens, UniProt Q9H228)
T1 construct: expressed in transfected cells; host or cells: CHO cells (membranes)
Assay: [35S]-GTPγS binding assay with CHO-S1P5 receptor membranes
Type: biochemical
Conditions: membranes of CHO cells expressing recombinant S1P5 receptors; measure of S1P5 agonism
Method in brief: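 Membranes from CHO cells expressing recombinant S1P5 were preincubated for 30 min at RT with compound, GDP and WGA SPA beads. The buffer was 20 mM HEPES, 10 mM MgCl2, 100 mM NaCl, 1 mM EDTA, 0.1% fatty-acid-free BSA and 30 μg/mL saponin, pH 7.4. [35S]GTPγS (200 pM final) was added for 40 min, and bound radioactivity read as agonism; S1P was the control.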

T1 sequence (Q9H228 whole entry): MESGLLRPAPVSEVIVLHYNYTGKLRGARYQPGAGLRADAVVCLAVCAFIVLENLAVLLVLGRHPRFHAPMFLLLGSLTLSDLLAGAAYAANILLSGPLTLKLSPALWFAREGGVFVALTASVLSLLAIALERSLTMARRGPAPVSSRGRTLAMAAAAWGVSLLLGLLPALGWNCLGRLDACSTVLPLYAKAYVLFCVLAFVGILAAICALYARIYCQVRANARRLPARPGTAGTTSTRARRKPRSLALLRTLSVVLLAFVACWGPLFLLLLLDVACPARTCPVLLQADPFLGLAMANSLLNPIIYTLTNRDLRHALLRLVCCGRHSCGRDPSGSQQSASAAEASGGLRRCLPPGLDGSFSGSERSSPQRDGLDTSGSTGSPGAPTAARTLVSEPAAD

First: Cc1cc(CN2CCC(C(=O)O)CC2)cnc1C1CN(c2c(Cl)cccc2Cl)C1 [Compound 79, 1-((6-(1-(2,6-dichlorophenyl)azetidin-3-yl)-5-methylpyridin-3-yl)methyl)piperidine-4-carboxylic acid]
Second: Cc1cc(CN2CCC(C(=O)O)CC2)c(C)nc1C1CN(c2c(Cl)cccc2Cl)C1 [Compound 83, 1-((6-(1-(2,6-dichlorophenyl)azetidin-3-yl)-2,5-dimethyl-pyridin-3-yl)methyl)piperidine-4-carboxylic acid]
The EC50 of the first is higher: 100 to 1000 nM for the first, 10 to 100 nM for the second.

First: Cc1cc(C2CN(c3c(Cl)cccc3Cl)C2)c(C)nc1CN1CCC(C(=O)O)CC1 [Compound 82, 1-((5-(1-(2,6-dichlorophenyl)azetidin-3-yl)-3,6-dimethylpyridin-2-yl)-methyl)piperidine-4-carboxylic acid]
Second: Cc1cc(CN2CCC(C(=O)O)CC2)nc(C)c1C1CN(c2c(Cl)cccc2Cl)C1 [Compound 84, 1-((5-(1-(2,6-dichlorophenyl)azetidin-3-yl)-4,6-dimethyl-pyridin-2-yl)methyl)piperidine-4-carboxylic acid]
The EC50 of the first is higher: 100 to 1000 nM for the first, 10 to 100 nM for the second.

`Cc1cc(C(C)(C)N2CCC(C(=O)O)CC2)cc(C)c1C1CN(c2c(Cl)cccc2Cl)C1` [Compound 86, 1-(2-(4-(1-(2,6-dichlorophenyl)azetidin-3-yl)-3,5-dimethylphenyl)propan-2-yl)piperidine-4-carboxylic acid] and `CC(C)(c1ccc(C2CN(c3c(Cl)cccc3Cl)C2)nc1)N1CCC(C(=O)O)CC1` [Compound 87, 1-(2-(6-(1-(2,6-dichlorophenyl)azetidin-3-yl)pyridin-3-yl)propan-2-yl)-piperidine-4-carboxylic acid] cannot be ordered by EC50: ≤ 10 nM for the first, 10 to 100 nM for the second.

`CC1(C(=O)O)CCN(Cc2ccc(C3CN(c4c(Cl)cccc4Cl)C3)cc2)CC1` [Compound 89, 1-(4-(1-(2,6-dichlorophenyl)azetidin-3-yl)benzyl)-4-methylpiperidine-4-carboxylic acid, formic acid salt] and `Cc1cc(C2CN(c3c(Cl)cccc3Cl)C2)cc(C)c1CN1CCC(C)(C(=O)O)CC1` [Compound 90, 1-(4-(1-(2,6-dichlorophenyl)azetidin-3-yl)-2,6-dimethylbenzyl)-4-methyl-piperidine-4-carboxylic acid, formic acid salt] cannot be ordered by EC50: 10 to 100 nM for the first, ≤ 10 nM for the second.
